From patent US9505739B2, “Spiropyrrolidine beta-secretase inhibitors for the treatment of alzheimer's disease” (Merck Sharp & Dohme Corp., priority 2009, dated 2016) come the findings set out here.

pIC50: −log10 of the molar value.

As usually defined, the pIC50 is the IC50 on a negative log10 scale, so that one unit is a factor of ten. Higher therefore signals a small IC50.

In this experiment the target is BACE 1 (Homo sapiens (Human), UniProt P56817). The experiment is described as follows: ECL assay: homogeneous end point electrochemiluminescence assay of beta-secretase inhibition with biotinylated BACE substrate. The class given is biochemical. Conditions: soluble human BACE 1, pH 6.5, rt. The method, then:
Enzyme inhibition is determined as follows.
ECL Assay: A homogeneous end point electrochemiluminescence (ECL) assay is performed using a biotinylated BACE substrate. The Km of the substrate is approximated at 50 μM. A typical reaction contains approximately 0.6 nM enzyme, 0.25 μM of the substrate, and buffer (50 mM Pipes, pH 6.5, 0.1 mg/ml BSA, 0.2% CHAPS, 15 mM EDTA and 1 mM deferoxamine) in a total reaction volume of 100 μl. The reaction proceeds for 1-2 hrs and is then stopped by the addition of 150 μL of a quench cocktail solution (25 μl M Tris-HCl, pH 8.0, 50 μl INC buffer (2% BSA, 0.2% Tween-20 and 0.05% sodium azide diluted in Phosphate buffered saline (PBS) plus 75 μL PBS), containing Streptavidin coated magnetic beads and ruthenylated antibody which specifically recognizes the C-terminal residue of the product. The samples are subjected to M-384 (Igen Inc., Gaithersburg, Md.) analysis. Under these conditions, less than 10% of substrate is processed by BACE 1. The enzyme used in these studies is soluble (transmembrane domain and cytoplasmic extension excluded) human protein produced in a baculovirus expression system. To measure the inhibitory potency for compounds, 10 concentrations of inhibitors are prepared starting from 200 μM with three fold series dilution. Solutions of the inhibitor in DMSO are included in the reaction mixture (final DMSO concentration is 10%). […]

BACE 1, sequence (P56817 46-457): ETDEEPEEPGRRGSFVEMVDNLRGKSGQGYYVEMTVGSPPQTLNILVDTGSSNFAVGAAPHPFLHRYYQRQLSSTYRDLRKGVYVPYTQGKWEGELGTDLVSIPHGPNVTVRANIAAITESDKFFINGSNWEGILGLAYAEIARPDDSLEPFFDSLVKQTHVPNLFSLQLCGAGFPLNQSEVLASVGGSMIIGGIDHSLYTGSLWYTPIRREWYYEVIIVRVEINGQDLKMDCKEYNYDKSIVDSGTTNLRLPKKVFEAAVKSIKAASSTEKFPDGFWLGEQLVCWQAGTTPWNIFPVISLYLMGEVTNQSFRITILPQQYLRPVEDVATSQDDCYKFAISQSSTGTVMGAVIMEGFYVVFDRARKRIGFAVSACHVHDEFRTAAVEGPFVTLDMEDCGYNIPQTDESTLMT

The molecule `Cc1cccc(C2CC(c3ccccc3)CCN2C(=O)[C@@H]2CNC[C@]23CCCc2nc(Cl)ccc23)c1` (stereo partly drawn) [Example 100, [(3R,4S)-2′-chloro-7′,8′-dihydro-6′H-spiro [pyrrolidine-3,5′-quinolin]-4-yl][2-(3-methylphenyl)-4-phenylpiperidin-1-yl] methanone] showed a pIC50 of 6.35.
